One experiment deals with PAK7 (Homo sapiens, UniProt Q9P286). The experiment in a line: Competitive binding assay (phage-displayed kinase vs immobilized staurosporine bait), PAK7. The settings on record: PAK Inhibitor Affinity Assay.
In the next experiment the target is PAK6 (Homo sapiens, UniProt Q9NQU5). The experiment in a line: biochemical. Format: binding. The following applies: PAK Inhibitor Affinity Assay.
The target of the next experiment is PAK2 (Homo sapiens, UniProt Q13177). The experiment in a line: Competitive binding assay (phage-displayed kinase vs immobilized staurosporine bait), PAK2.
The next experiment has as its target PAK1 (Homo sapiens, UniProt Q13153). Put plainly: Competitive binding assay (phage-displayed kinase vs immobilized staurosporine bait), PAK1.
The target of another experiment is PAK4 (Homo sapiens, UniProt O96013). The experiment in a line: Competitive binding assay (phage-displayed kinase vs immobilized staurosporine bait), PAK4. The following applies: PAK Inhibitor Affinity Assay.

Where two headings read alike, the source gives them in different places. A value given as a limit tells only on which side of the number the result lay.

For 2 compounds, Kd results are on record in patent publication US20100317715A1, “METHODS FOR TREATING NEUROPSYCHIATRIC CONDITIONS” (priority 2007, published 2010).

Sequence of PAK6 (Q9NQU5 whole entry): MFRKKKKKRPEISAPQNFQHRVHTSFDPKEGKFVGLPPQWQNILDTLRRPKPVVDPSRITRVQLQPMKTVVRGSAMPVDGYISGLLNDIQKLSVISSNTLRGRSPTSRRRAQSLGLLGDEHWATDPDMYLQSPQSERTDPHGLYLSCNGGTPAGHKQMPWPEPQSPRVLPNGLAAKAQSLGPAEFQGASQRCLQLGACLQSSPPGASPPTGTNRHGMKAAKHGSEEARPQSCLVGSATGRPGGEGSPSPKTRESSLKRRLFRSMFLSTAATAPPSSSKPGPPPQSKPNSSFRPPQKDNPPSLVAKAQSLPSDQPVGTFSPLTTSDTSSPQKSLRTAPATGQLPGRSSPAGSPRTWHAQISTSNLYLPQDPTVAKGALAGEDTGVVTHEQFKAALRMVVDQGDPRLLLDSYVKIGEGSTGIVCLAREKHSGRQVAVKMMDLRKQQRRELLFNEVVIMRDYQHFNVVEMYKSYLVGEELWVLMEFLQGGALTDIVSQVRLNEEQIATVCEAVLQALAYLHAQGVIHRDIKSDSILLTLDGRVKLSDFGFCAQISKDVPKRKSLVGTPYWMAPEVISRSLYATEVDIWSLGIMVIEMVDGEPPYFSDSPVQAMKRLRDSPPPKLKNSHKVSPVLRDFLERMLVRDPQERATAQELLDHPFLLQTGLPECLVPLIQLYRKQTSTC
Sequence of PAK2 (Q13177 whole entry): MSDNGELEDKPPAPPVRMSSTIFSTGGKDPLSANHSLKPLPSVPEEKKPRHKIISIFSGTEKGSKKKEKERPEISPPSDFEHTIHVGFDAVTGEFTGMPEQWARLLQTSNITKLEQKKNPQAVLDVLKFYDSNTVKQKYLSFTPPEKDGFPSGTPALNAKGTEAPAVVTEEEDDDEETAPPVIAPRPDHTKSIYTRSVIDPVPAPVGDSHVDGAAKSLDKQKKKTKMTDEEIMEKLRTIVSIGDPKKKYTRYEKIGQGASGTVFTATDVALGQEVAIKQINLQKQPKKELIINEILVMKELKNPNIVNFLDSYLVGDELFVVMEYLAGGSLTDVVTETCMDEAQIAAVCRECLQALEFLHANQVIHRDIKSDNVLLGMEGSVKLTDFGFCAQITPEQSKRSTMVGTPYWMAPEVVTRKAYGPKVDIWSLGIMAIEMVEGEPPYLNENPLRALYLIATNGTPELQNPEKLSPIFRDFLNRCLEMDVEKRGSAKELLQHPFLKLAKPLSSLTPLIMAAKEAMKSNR
Sequence of PAK1 (Q13153 whole entry): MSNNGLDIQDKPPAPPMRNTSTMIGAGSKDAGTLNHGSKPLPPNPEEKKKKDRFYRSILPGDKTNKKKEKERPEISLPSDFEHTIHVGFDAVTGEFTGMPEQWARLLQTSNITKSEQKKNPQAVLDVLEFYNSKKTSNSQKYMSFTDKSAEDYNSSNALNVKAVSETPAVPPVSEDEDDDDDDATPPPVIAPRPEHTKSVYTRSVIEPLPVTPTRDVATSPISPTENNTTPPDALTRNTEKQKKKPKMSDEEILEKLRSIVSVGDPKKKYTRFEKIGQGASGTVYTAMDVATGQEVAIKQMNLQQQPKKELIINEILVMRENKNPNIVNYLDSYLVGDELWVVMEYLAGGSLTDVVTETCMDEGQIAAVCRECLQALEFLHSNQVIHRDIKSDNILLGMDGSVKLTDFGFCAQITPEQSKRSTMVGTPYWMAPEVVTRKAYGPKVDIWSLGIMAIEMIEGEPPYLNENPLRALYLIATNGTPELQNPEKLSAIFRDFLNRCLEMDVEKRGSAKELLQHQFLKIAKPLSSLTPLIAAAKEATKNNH
Sequence of PAK7 (Q9P286 whole entry): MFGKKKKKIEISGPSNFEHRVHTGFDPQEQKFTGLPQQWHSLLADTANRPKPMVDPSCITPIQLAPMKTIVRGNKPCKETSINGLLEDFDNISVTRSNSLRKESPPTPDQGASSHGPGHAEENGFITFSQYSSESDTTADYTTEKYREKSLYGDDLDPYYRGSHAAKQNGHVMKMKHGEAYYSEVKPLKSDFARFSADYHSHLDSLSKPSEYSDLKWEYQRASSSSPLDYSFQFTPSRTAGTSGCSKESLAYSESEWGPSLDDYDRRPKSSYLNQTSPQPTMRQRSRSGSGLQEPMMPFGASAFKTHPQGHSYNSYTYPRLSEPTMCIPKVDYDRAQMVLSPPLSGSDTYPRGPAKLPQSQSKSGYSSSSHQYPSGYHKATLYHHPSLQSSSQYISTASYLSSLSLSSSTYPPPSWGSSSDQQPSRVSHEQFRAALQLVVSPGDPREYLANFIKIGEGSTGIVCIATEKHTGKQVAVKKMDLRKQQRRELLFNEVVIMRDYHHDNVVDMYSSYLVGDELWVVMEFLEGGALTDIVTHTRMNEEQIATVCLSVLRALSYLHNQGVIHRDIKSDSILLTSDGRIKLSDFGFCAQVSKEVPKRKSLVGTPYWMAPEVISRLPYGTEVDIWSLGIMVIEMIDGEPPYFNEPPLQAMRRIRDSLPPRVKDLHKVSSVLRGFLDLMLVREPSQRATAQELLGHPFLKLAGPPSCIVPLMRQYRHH
Sequence of PAK4 (O96013 whole entry): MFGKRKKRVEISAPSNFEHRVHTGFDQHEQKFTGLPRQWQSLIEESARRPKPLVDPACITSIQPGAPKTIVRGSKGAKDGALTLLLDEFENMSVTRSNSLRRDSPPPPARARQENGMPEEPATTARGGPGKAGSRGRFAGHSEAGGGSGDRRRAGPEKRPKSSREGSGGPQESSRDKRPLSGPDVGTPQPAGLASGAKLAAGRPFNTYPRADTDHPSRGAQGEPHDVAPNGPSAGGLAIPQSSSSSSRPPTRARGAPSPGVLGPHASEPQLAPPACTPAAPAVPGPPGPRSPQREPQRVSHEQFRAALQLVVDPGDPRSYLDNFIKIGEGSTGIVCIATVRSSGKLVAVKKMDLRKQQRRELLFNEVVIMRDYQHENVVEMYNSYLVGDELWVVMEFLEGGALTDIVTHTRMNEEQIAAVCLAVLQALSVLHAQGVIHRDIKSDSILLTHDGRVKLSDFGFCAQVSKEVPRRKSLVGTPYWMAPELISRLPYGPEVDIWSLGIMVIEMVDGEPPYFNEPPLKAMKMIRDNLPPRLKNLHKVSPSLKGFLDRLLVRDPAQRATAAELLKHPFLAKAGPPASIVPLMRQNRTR

As usually defined, the Kd is the concentration at which binding is half-saturated. On to `CCOc1cc2ncc(C#N)c(Nc3ccc(F)c(Cl)c3)c2cc1NC(=O)/C=C/CN(C)C` [EKB-569], for which the Kd at PAK7 was at least 10 µM; at PAK6, at least 10 µM; on PAK2 (PAK Inhibitor Affinity Assay, read-out: Kd PAK2), at least 10 µM; at PAK1 (PAK Inhibitor Affinity Assay, read-out: Kd PAK1), under 5 µM; on PAK4, at least 10 µM.
Turning to `Nc1nc(Nc2ccc(S(N)(=O)=O)cc2)nn1C(=O)c1c(F)cccc1F` [JNJ-7706621], the Kd is under 5 µM on PAK6, at least 10 µM on PAK2 and at least 10 µM on PAK1.
